According to US20100173832A1, “ANTICANCEROUS POLYMERIC AGENTS” (TECHNION RESEARCH & DEVELOPMENT FOUNDATION LTD., priority 2007, published 2010):
Like-named read-outs stand apart in the source and are kept apart here. Non-standard residues stand in square brackets, D forms with d. Residues, ends and D or L forms follow the SMILES beside them. *: point of attachment. Lauroyl = CCCCCCCCCCCC(=O)*; 12Ado = NCCCCCCCCCCCC(=O)O; Octanoyl = CCCCCCCC(=O)*

Tests used:
[1] = test system: human red blood cells (RBC); experiment: in vitro
Protocol: (§1) The polymer's toxic potential was determined against human red blood cells (RBC) by measuring leakage of hemoglobin therefrom in phosphate buffer solution (PBS). Human blood samples were rinsed three times in PBS by centrifugation for 2 minutes at 200×g, and re-suspended in PBS at 5% hematocrit. A 50 μl-fractions of a suspension containing […] RBC were added to test tubes containing 200 μl of polymer solutions (2-fold serial dilutions in PBS), PBS alone (for base-line values), or distilled water (for 100% hemolysis). […] Controls for base-line hemolysis (blank) and 100% hemolysis consisted of RBC suspended in PBS and TritonX100 (0.2%), respectively.

[2] = in vitro; settings: human, red blood cells
Protocol: as §1

[3] = test system: TRAMP-C2 cell line; assay type: cell-based; settings: for CC50: 24 hours incubation, XTT, read-out: Cancer LC50 Mouse prostate cancer TRAMP-C2
From the text: Transgenic adenocarcinoma mouse prostate cells (TRAMP-C2);
(§2) As a routine cancer cell killing assay for assessment of antitumor activity, 2,3-bis(2-methoxy-4-nitro-5-sulfophenyl)-2H-tetrazolium-5-carboxanilide inner salt (XTT) reduction assay was used, utilizing a commercial kit such as, for example, Cell Proliferation XTT Kit, Cat. No. 20-300-1000, Biological Industries Ltd., Kibbutz Beit Haemek, Israel. XTT is a tetrazolium salt which is cleaved to formazan colored compounds by the mitochondrial dehydrogenase enzymes indicating proper mitochondrial activity in intact cells.
(§3) Thereafter, a series of increasing concentrations of the polymers were added. After another 24 hours of incubation, XTT reaction solution was added (50 μl of XTT per 100 μl of cell culture medium). The optical density of the cells was measured at 450 nm by ELISA plate reader after 2-4 hours XTT incubation. Cell viability was determined relative to a control having no polymer added thereto.
“Mouse prostate cancer TRAMP-C2” represents the lethal concentration in μM as measured against TRAMP-C2 cell line, measured as described hereinabove in the cell proliferation XTT assay (column 5 in Table 3);

[4] = test system: drug-resistant 2008/MRP1 cells; experiment: Cytotoxicity against drug-resistant 2008/MRP1 cells; settings: read-out: LC50 against drug-resistant 2008/MRP1 cells; 1 day exposure (overnight), FIG. 10
[5] = test system: drug-resistant 2008/MRP1 cells; settings: human, 3 day
[6] = test system: ovarian carcinoma 2008 drug-sensitive cells; experiment: Cytotoxicity against drug-sensitive ovarian carcinoma 2008 cells; settings: read-out: LC50 against drug-sensitive 2008 cells
[7] = test system: N-417 cell line; experiment: XTT cell viability assay, N-417 cells; assay type: cell-based; settings: 24 hours incubation, XTT; read-out: Cancer LC50 Human small-cell lung carcinoma N-417
From the text: Variant small cell lung cancer cells (N-417, SCLC);
as §2, §3
“Human breast cancer MCF-7” represents the lethal concentration in μM as measured against MCF-7 cell line, measured as described hereinabove in the cell proliferation XTT assay (column 6 in Table 3); “Human small-cell lung carcinoma N-417” represents the lethal concentration in μM as measured against N-417 cell line, measured as described hereinabove in the cell proliferation XTT assay (column 7 in Table 3);

[8] = XTT cell viability assay, non-cancerous cardiac fibroblasts (CF); assay type: cell-based, rat; settings: rat
From the text: Primary non-cancerous rat cardiac fibroblasts (CF);
as §2, §3
“Rat primary cardiac fibroblast CF” represents the lethal concentration in μM as measured against CF cell line, measured as described hereinabove in the cell proliferation XTT assay (column 8 in Table 3);

[9] = test system: MCF-7 cell line; assay type: cell-based
Protocol: Human breast adenocarcinoma cells (MCF-7);
Thereafter, a series of increasing concentrations of the polymers were added. […] The optical density of the cells was measured at 450 nm by ELISA plate reader after 2-4 hours XTT incubation. Cell viability was determined relative to a control having no polymer added thereto.

[10] = primary non-cancerous cardiac fibroblasts (CF), 24 hours incubation, XTT, non-cancerous cells, read-out: Cancer LC50 Rat primary cardiac fibroblast CF
[11] = 24 hours incubation, XTT, read-out: Cancer LC50 Human breast cancer MCF-7
[12] = LC50 against non-cancerous CF cells

| Structure (SMILES) | hemolytic concentration versus cytotoxic concentration against cancer cells [1] | HC50 at 3 h [2] [µM] | CC50 [3] [µM] | CC50 [4] [µM] | CC50 [5] [µM] | CC50 ([6]; 1 day exposure (overnight), FIG. 10) [µM] | CC50 [7] [µM] | CC50 at 24 h [8, 10] [µM] | CC50 [9, 11] [µM] | CC50 ([1]; read-out: LC50 RBC (hemolytic concentration inducing lysis of 50% of human red blood cells), 3 hours incubation at 37° C., hemoglobin leakage assay) [µM] | CC50 at 24 h [8, 12] [µM] | CC50 ([9]; dose-dependent plots, FIGS. 4a-b, read-out: LC50 against MCF-7 cells) [µM] | CC50 ([9]; human, 24 h) [µM] | TRAMP-C2 lethal concentration ([3]; mouse prostate cancer TRAMP-C2 cells, XTT assay) [µM] | CC50 ([6]; Homo sapiens, 72 h) [µM] | MCF-7 lethal concentration ([9]; human breast adenocarcinoma MCF-7 cells, XTT assay) [µM] |
| --- | --- | --- | --- | --- | --- | --- | --- | --- | --- | --- | --- | --- | --- | --- | --- | --- |
| NCCCCCCCCCCCC(=O)N[C@@H](CCCCN)C(=O)N[C@@H](CCCCN)C(=O)NCCCCCCCCCCCC(=O)N[C@@H](CCCCN)C(=O)N[C@@H](CCCCN)C(=O)NCCCCCCCCCCCC(=O)N[C@@H](CCCCN)C(=O)N[C@@H](CCCCN)C(=O)NCCCCCCCCCCCC(=O)N[C@@H](CCCCN)C(N)=O (H-[12Ado]KK[12Ado]KK[12Ado]KK[12Ado]K-NH2) | more than one order of magnitude higher | > 100 | 15 | ~15 | 4 | ~15 | 10 ± 1 | 35 ± 5 | 7 ± 1 | – | – | – | – | – | – | – |
| NCCCC[C@H](NC(=O)CCCCCCCCCCCNC(=O)[C@H](CCCCN)NC(=O)[C@H](CCCCN)NC(=O)CCCCCCCCCCCNC(=O)[C@H](CCCCN)NC(=O)[C@H](CCCCN)NC(=O)CCCCCCCCCCCNC(=O)[C@@H](N)CCCCN)C(N)=O [(KNC12K)3NH2] (H-K[12Ado]KK[12Ado]KK[12Ado]K-NH2) | – | > 100 | > 16 | – | – | – | > 16 | > 16 | > 16 | > 100 | – | – | – | – | – | – |
| CCCCCCCC(=O)N[C@@H](CCCCN)C(=O)N[C@@H](CCCCN)C(=O)NCCCCCCCCCCCC(=O)N[C@@H](CCCCN)C(=O)N[C@@H](CCCCN)C(=O)NCCCCCCCCCCCC(=O)N[C@@H](CCCCN)C(=O)N[C@@H](CCCCN)C(=O)NCCCCCCCCCCCC(=O)N[C@@H](CCCCN)C(N)=O [C8K(KNC12K)3NH2] (Octanoyl-KK[12Ado]KK[12Ado]KK[12Ado]K-NH2) | – | > 100 | 16 ± 2 | – | – | – | 10 ± 0.4 | 25 ± 8 | 5.7 ± 0.3 | – | 25 | 5.5 | – | – | – | – |
| CCCCCCCCCCCC(=O)N[C@@H](CCCCN)C(=O)NCCCCCCCCCCCC(=O)N[C@@H](CCCCN)C(=O)N[C@@H](CCCCN)C(=O)NCCCCCCCCCCCC(=O)N[C@@H](CCCCN)C(N)=O [C12(KNC12K)2NH2] (Lauroyl-K[12Ado]KK[12Ado]K-NH2) | – | 17 ± 6 | > 16 | – | – | – | 10 ± 1 | 67 ± 10 | – | – | 67 | – | 11 | – | – | – |
| NCCCC[C@H](NC(=O)CCCCCCCCCCCNC(=O)[C@H](CCCCN)NC(=O)[C@H](CCCCN)NC(=O)CCCCCCCCCCCNC(=O)[C@H](CCCCN)NC(=O)[C@H](CCCCN)NC(=O)CCCCCCCCCCCNC(=O)[C@H](CCCCN)NC(=O)[C@@H](N)CCCCN)C(N)=O [K(KNC12K)3NH2] (H-KK[12Ado]KK[12Ado]KK[12Ado]K-NH2) | – | > 100 | > 16 | – | – | – | > 16 | > 16 | > 16 | – | – | – | – | – | – | – |
| NCCCCCCCCCCCC(=O)N[C@@H](CCCCN)C(=O)NCCCCCCCCCCCC(=O)N[C@@H](CCCCN)C(=O)N[C@@H](CCCCN)C(=O)NCCCCCCCCCCCC(=O)N[C@@H](CCCCN)C(=O)N[C@@H](CCCCN)C(=O)NCCCCCCCCCCCC(=O)N[C@@H](CCCCN)C(N)=O [NC12(KNC12K)3NH2] (H-[12Ado]K[12Ado]KK[12Ado]KK[12Ado]K-NH2) | more than one order of magnitude higher | > 100 | > 16 | – | – | – | > 16 | 37 ± 1 | 7 ± 1 | – | – | – | – | – | – | – |
| COc1cccc2c1C(=O)c1c(O)c3c(c(O)c1C2=O)C[C@@](O)(C(=O)CO)C[C@@H]3O[C@H]1C[C@H](N)[C@H](O)[C@H](C)O1 [doxorubicin, reference compound] | – | – | – | – | – | – | – | – | – | – | – | – | – | 0.5 ± 0.5 | 0.035 | 3.3 ± 2 |
